Counter-ions that a name gives are not always drawn.
How the values were obtained:
[1] = tested on: Male Swiss albino mice; assay: Forced swim test; format: in vivo, mouse; settings: 10 mg/kg, p.o., 30 min after treatment
Procedure: Male Swiss albino mice having weight range of 30-40 g were used. Mice were dosed with vehicle or test compound. Thirty min after treatment, animals were individually placed inside the plexiglass cylinder (40 cm height×17 cm width) for 6 min. The depth of water (24±1° C.) was maintained at 18 cm. The immobility of the mice during the last 4 min were recorded in the 6 min trial. Forced swim test assesses antidepressant like effects of test compounds.

[2] = target: T1, recombinant human 5-HT1A receptor (Homo sapiens, UniProt P08908); assay: Determination of Kb at 5-HT1A receptor, pCRE-Luc reporter gene assay in CHO cells; format: cell-based
T1 construct: expressed in transfected cells
T1 sequence (P08908 1-422): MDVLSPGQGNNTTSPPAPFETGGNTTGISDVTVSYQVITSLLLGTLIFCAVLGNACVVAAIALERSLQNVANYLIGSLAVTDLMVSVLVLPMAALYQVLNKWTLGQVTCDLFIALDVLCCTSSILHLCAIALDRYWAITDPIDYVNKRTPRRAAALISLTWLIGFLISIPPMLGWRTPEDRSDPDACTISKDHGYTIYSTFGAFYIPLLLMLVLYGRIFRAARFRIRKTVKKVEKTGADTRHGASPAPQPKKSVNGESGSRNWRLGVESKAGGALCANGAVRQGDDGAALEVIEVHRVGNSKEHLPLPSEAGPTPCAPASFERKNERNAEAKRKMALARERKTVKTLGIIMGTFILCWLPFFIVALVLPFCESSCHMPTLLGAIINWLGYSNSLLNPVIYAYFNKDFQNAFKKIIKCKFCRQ
Procedure: A stable CHO cell line expressing recombinant human 5-HT1A receptor and pCRE-Luc reporter system was used for cell-based assay. The assay offers a non-radioactive based approach to determine binding of a compound to GPCRs. In this specific assay, the level of intracellular cAMP which is modulated by activation or inhibition of the receptor is measured. The recombinant cells harbor luciferase reporter gene under the control of cAMP response element.
(§1) The above cells were grown in 96 well clear bottom white plates in Hams F12 medium containing 10% fetal bovine serum (FBS). Prior to the addition of compounds or standard agonist, cells were serum starved overnight. Increasing concentrations of test compound were added along with 1 μM of U92016A and 1 μM of forskolin in Opti-MEM medium to the cells. The incubation was continued at 37° C. in CO2 incubator for 4 hours. Medium was removed and cells were washed with phosphate buffered saline. The cells were lysed and luciferase activity was measured in a Luminometer. Luminescence units were plotted against the compound concentrations using GraphPad Prism software. EC50 values of the compounds were defined as the concentration required in reducing the luciferase activity by 50%. The Kb values were calculated by feeding the concentration of agonist used in the assay and its EC50 value in the same software.

[3] = target: T2, recombinant human 5-HT2A receptor (Homo sapiens, UniProt P28223); assay: Determination of Kb at 5-HT2A receptor, pCRE-Luc reporter gene assay in CHO cells; format: cell-based
T2 construct: expressed in transfected cells
T2 sequence (P28223 whole entry): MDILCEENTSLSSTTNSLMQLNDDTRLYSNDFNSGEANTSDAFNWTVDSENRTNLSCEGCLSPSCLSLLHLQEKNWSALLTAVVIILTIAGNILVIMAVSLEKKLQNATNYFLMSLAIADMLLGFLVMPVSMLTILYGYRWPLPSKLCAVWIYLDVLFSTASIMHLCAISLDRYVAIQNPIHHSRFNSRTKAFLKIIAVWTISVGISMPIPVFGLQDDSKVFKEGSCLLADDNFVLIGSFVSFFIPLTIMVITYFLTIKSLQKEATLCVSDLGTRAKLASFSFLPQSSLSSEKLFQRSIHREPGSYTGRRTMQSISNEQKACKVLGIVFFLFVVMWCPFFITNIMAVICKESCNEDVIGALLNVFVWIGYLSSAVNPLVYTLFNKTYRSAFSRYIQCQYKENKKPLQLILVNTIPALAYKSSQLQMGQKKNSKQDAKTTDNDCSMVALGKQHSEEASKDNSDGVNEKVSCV
Procedure: A stable CHO cell line expressing recombinant human 5-HT2A receptor and pCRE-Luc reporter system was used for cell-based assay. The assay offers a non-radioactive based approach to determine binding of a compound to GPCRs. In this specific assay, the level of intracellular cAMP which is modulated by activation or inhibition of the receptor was measured. The recombinant cells harbor luciferase reporter gene under the control of cAMP response element.
as §1, with “serotonin” for “U92016A and 1 μM of forskolin”

## O=C1C[C@@H]2CCCN2C(=O)N1CCCCN1CCN(c2nsc3ccccc23)CC1 [Example 2, 2-[4-(4-Benzo[d]isothiazol-3-yl-piperazin-1-yl)-butyl]-tetrahydro-pyrrolo[1,2-c]pyrimidine-1,3-dione oxalate]
[1]
  Inference, mice forced swim test: Active
[2]; pCRE-Luc reporter gene assay
  agonist activity at human recombinant 5-HT1A receptor: no detectable agonist activity
  antagonistic activity at human recombinant 5-HT1A receptor: antagonistic activity
[2]; with 1 μM U92016A and 1 μM forskolin, luciferase readout
  Kb: 2.3 nM
[3]; pCRE-Luc reporter gene assay
  agonist activity at human recombinant 5-HT2A receptor: no detectable agonist activity
  antagonistic activity at human recombinant 5-HT2A receptor: antagonistic activity
[3]; with 1 μM serotonin, luciferase readout
  Kb: 8 nM
